From patent US12497365B2, “4-pyridinyl formamide compound or derivative thereof, preparation method therefor, herbicidal composition and use thereof” (Qingdao Kingagroot Chemical Compound Co., Ltd., priority 2019, dated 2025)

Tests used:
Test in all cases: Weeding effect in post-emergence stage
Type in all cases: in vivo
Settings in all cases: active ingredient 2000 g/ha, 3 weeks after application, fresh weight control rate
[1] = test system: Amaranthus retroflexus L.
Text: (§1) The activity level criteria for plant damage (i.e., growth control rate) are as follows:
(§2) The above growth control rates are fresh weight control rates.
(§3) Experiment on weeding effect in post-emergence stage: monocotyledonous and dicotyledonous weed seeds and major crop seeds (wheat, corn, rice, soybean, cotton, oilseed rape, millet, sorghum) were placed in plastic pots filled with soil, then covered with 0.5-2 cm of soil, allowed to grow in a good greenhouse environment. After 2 weeks of sowing, the test plants were treated in the 2-3 leaf stage. The tested compounds of the present invention were respectively dissolved in acetone at the dosage of 2000, 1000, 500, 250, 125 g/ha, then added with Tween 80 and 1.5 liter/ha of emulsifiable concentrate of methyl oleate as synergist, diluted with a certain amount of water to obtain a solution with a certain concentration, and sprayed with a spray tower onto the plants. After the application, the plants were cultured for 3 weeks in the greenhouse, and then the experimental results were listed in Table 1.

Abutilon theophrasti = test system: Abutilon theophrasti
Text: as §1, §2, §3

Descurainia sophia = test system: Descurainia sophia
Text: as §1, §2, §3

Chenopodium album = test system: Chenopodium album
Text: as §1, §2, §3

Row | SMILES | Weeding effect, activity level (growth control rate), Amaranthus retroflexus L. [1] | Weeding effect, activity level (growth control rate), Abutilon theophrasti (Abutilon theophrasti) | Weeding effect, activity level (growth control rate), Descurainia sophia (Descurainia sophia) | Weeding effect, activity level (growth control rate), Chenopodium album (Chenopodium album)
1 | COc1ccc(-c2nccc(C(=O)Nc3nnnn3C)c2Cl)cn1 [Compound 1-143] | 5 (Level 5: growth control rate is above 85%) | 5 (Level 5: growth control rate is above 85%) | 5 (Level 5: growth control rate is above 85%) | 5 (Level 5: growth control rate is above 85%)
2 | Cn1nnnc1NC(=O)c1ccnc(-c2ccc(Cl)s2)c1Cl [Compound 1-189] | 5 (Level 5: growth control rate is above 85%) | 5 (Level 5: growth control rate is above 85%) | 5 (Level 5: growth control rate is above 85%) | 5 (Level 5: growth control rate is above 85%)
3 | CCC(OC)c1c(C(=O)Nc2nnnn2C)ccnc1-c1ccc(F)cc1 (stereo not drawn) [Compound 1-216] | 5 (Level 5: growth control rate is above 85%) | 5 (Level 5: growth control rate is above 85%) | 5 (Level 5: growth control rate is above 85%) | 5 (Level 5: growth control rate is above 85%)
4 | Cn1nnnc1NC(=O)c1ccnc(-c2cccc3c2oc2ccccc23)c1Cl [Compound 1-116] | 5 (Level 5: growth control rate is above 85%) | 5 (Level 5: growth control rate is above 85%) | 5 (Level 5: growth control rate is above 85%) | 5 (Level 5: growth control rate is above 85%)
5 | Cn1nnnc1NC(=O)c1ccnc(-c2ccc(F)cc2)c1[N+](=O)[O-] [Compound 1-212] | 5 (Level 5: growth control rate is above 85%) | 5 (Level 5: growth control rate is above 85%) | 5 (Level 5: growth control rate is above 85%) | 5 (Level 5: growth control rate is above 85%)
6 | COc1cccc(F)c1-c1nccc(C(=O)Nc2nnnn2C)c1Cl [Compound 1-70] | 5 (Level 5: growth control rate is above 85%) | 5 (Level 5: growth control rate is above 85%) | 5 (Level 5: growth control rate is above 85%) | 5 (Level 5: growth control rate is above 85%)
7 | Cn1nnnc1NC(=O)c1ccnc(-c2nccs2)c1Cl [Compound 1-230] | 5 (Level 5: growth control rate is above 85%) | 5 (Level 5: growth control rate is above 85%) | 5 (Level 5: growth control rate is above 85%) | 5 (Level 5: growth control rate is above 85%)
8 | Cn1nnnc1NC(=O)c1ccnc(-c2cccc(Cl)c2Cl)c1Cl [Compound 1-87] | 5 (Level 5: growth control rate is above 85%) | 5 (Level 5: growth control rate is above 85%) | 5 (Level 5: growth control rate is above 85%) | 5 (Level 5: growth control rate is above 85%)
9 | Cn1nnnc1NC(=O)c1ccnc(-c2ccc(F)cc2)c1C#N [Compound 1-213] | 5 (Level 5: growth control rate is above 85%) | 5 (Level 5: growth control rate is above 85%) | 5 (Level 5: growth control rate is above 85%) | 5 (Level 5: growth control rate is above 85%)
10 | C=CC(=O)Nc1cccc(-c2nccc(C(=O)Nc3nnnn3C)c2Cl)c1 [Compound 1-48] | 5 (Level 5: growth control rate is above 85%) | 5 (Level 5: growth control rate is above 85%) | 5 (Level 5: growth control rate is above 85%) | 5 (Level 5: growth control rate is above 85%)
11 | Cc1nnc(NC(=O)c2ccnc(-c3ccc(F)cc3)c2Cl)o1 [Compound 1-962] | 5 (Level 5: growth control rate is above 85%) | 5 (Level 5: growth control rate is above 85%) | 5 (Level 5: growth control rate is above 85%) | 5 (Level 5: growth control rate is above 85%)
12 | CC(C)c1c(C(=O)Nc2nnnn2C)ccnc1-c1ccc(F)cc1 [Compound 1-197] | 5 (Level 5: growth control rate is above 85%) | 5 (Level 5: growth control rate is above 85%) | 5 (Level 5: growth control rate is above 85%) | 5 (Level 5: growth control rate is above 85%)
13 | Cn1nnnc1NC(=O)c1ccnc(-c2cncs2)c1Cl [Compound 1-229] | 5 (Level 5: growth control rate is above 85%) | 5 (Level 5: growth control rate is above 85%) | 5 (Level 5: growth control rate is above 85%) | 5 (Level 5: growth control rate is above 85%)
14 | Cc1cc(F)ncc1-c1nccc(C(=O)Nc2nnnn2C)c1Cl [Compound 1-136] | 5 (Level 5: growth control rate is above 85%) | 5 (Level 5: growth control rate is above 85%) | 5 (Level 5: growth control rate is above 85%) | 5 (Level 5: growth control rate is above 85%)
15 | Cn1nnnc1NC(=O)c1ccnc(-c2ccc(F)cc2C#N)c1Cl [Compound 1-83] | 5 (Level 5: growth control rate is above 85%) | 5 (Level 5: growth control rate is above 85%) | 5 (Level 5: growth control rate is above 85%) | 5 (Level 5: growth control rate is above 85%)
16 | Cn1nnnc1NC(=O)c1ccnc(-c2ccccc2OC(F)(F)F)c1Cl [Compound 1-31] | 5 (Level 5: growth control rate is above 85%) | 5 (Level 5: growth control rate is above 85%) | 5 (Level 5: growth control rate is above 85%) | 5 (Level 5: growth control rate is above 85%)
17 | Cn1nnnc1NC(=O)c1ccnc(-c2cccc(C#N)c2F)c1Cl [Compound 1-80] | 5 (Level 5: growth control rate is above 85%) | 5 (Level 5: growth control rate is above 85%) | 5 (Level 5: growth control rate is above 85%) | 5 (Level 5: growth control rate is above 85%)
18 | Cc1csc(-c2nccc(C(=O)Nc3nnnn3C)c2Cl)c1 [Compound 1-188] | 5 (Level 5: growth control rate is above 85%) | 5 (Level 5: growth control rate is above 85%) | 5 (Level 5: growth control rate is above 85%) | 5 (Level 5: growth control rate is above 85%)
